Test results: patent US8232288B2, “Substituted benzimidazoles, benzothiazoles and benzoxazoles” (Gruenenthal GmbH, priority 2009, dated 2012)
Structures can show the parent of a compound that is named as a salt.

Columns and labels:
[1] = target: T1, human B1R receptor (hB1R) (Homo sapiens, UniProt P46663); assay: Functional investigation on the bradykinin receptor 1 (B1R), FLIPR Ca2+ assay, hB1R cells; format: cell-based
T1 construct: expressed in transfected cells; host or cells: CHO K1 cells
T1 sequence (P46663 1-353): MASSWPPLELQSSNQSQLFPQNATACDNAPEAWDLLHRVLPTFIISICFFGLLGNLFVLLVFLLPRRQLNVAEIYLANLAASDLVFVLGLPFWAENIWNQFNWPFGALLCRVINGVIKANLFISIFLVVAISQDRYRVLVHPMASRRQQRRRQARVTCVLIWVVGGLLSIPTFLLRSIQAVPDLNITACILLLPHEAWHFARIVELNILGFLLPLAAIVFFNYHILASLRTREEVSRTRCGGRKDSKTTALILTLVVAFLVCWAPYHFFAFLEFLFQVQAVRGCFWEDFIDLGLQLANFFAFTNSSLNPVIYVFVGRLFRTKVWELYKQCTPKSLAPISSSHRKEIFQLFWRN
Procedure: (§1) The agonistic or antagonistic action of substances can be quantified on the bradykinin receptor 1 (B1R) of the human and rat species with ectopically expressing cell lines (CHO K1 cells) and with the aid of a Ca^2+-sensitive dyestuff (Fluo-4) in a fluorescent imaging plate reader (FLIPR). The figure in % activation is based on the Ca^2+ signal after addition of Lys-Des-Arg^9-bradykinin (0.5 nM) or Des-Arg^9-bradykinin (100 nM). Antagonists lead to a suppression of the Ca^2+ inflow after addition of the agonist. % inhibition compared with the maximum achievable inhibition is stated.
(§2) The agonistic or antagonistic action of substances can be determined on the bradykinin receptor 1 (B1R) of the human and rat species with the following assay. In accordance with this assay, the Ca^2+ inflow through the channel is quantified with the aid of a Ca^2+-sensitive dyestuff (type Fluo-4, Molecular Probes Europe BV, Leiden Holland) in a fluorescent imaging plate reader (FLIPR, Molecular Devices, Sunnyvale, USA).
(§3) Chinese hamster ovary cells (CHO K1 cells) transfected stably with the human B1R gene (hB1R cells) or the B1R gene of the rat (rB1R cells) are used. For functional studies, these cells are plated out on black 96-well plates with a clear base (BD Biosciences, Heidelberg, Germany or Greiner, Frickenhausen, Germany) in a density of 20,000-35,000 cells/well. The cells are left overnight at 37° C. and 5% CO2 in culture medium (hB1R cells: Nutrient Mixture Ham's F12, Gibco Invitrogen GmbH, Karlsruhe, Germany or DMEM, Sigma-Aldrich, Taufkirchen, Germany; rB1R cells: D-MEM/F12, Gibco Invitrogen GmbH, Karlsruhe, Germany) with 10 vol. % FBS (foetal bovine serum, Gibco Invitrogen GmbH, Karlsruhe, Germany or PAN Biotech GmbH, Aidenbach, Germany). On the following day, the cells are loaded for 60 min at 37° C. with 2.13 μM Fluo-4 (Molecular Probes Europe BV, Leiden Holland) in HBSS buffer (Hank's buffered saline solution, Gibco Invitrogen GmbH, Karlsruhe, Germany) with 2.5 mM probenecid (Sigma-Aldrich, Taufkirchen, Germany) and 10 mM HEPES (Sigma-Aldrich, Taufkirchen, Germany). The plates are then washed 2× with HBSS buffer, and HBSS buffer which additionally contains 0.1% BSA (bovine serum albumin; Sigma-Aldrich, Taufkirchen, Germany), 5.6 mM glucose and 0.05% gelatine (Merck KGaA, Darmstadt, Germany) is added. After a further incubation of 20 minutes at room temperature, the plates are inserted into the FLIPR for the Ca^2+ measurement.
(§4) Alternatively, the plates are washed with buffer A (15 mM HEPES, 80 mM NaCl, 5 mM KCl, 1.2 mM CaCl2, 0.7 mM MgSO4, 2 g/l glucose, 2.5 mM probenecid), buffer A is added and the plates are loaded with 2.5 μM Fluo-4 and 0.025% Pluronic F127 (Sigma-Aldrich, Taufkirchen, Germany). Thereafter, the cells are washed 2× with buffer A and incubated for 30 minutes at room temperature with buffer A, which additionally contains 0.05% BSA and 0.05% gelatine, and thereafter inserted into the FLIPR for the Ca^2+ measurement.
(§5) The Ca^2+-dependent fluorescence is measured here before and after addition of substances (λex=488 nm, λem=540 nm). Quantification is by measurement of the highest fluorescence intensity (FC, fluorescence counts) over time.
(§6) The FLIPR protocol consists of 2 additions of substance. Test substances (10 μM) are first pipetted on to the cells and the Ca^2+ inflow is compared with the control (hB1R: Lys-Des-Arg^9-bradykinin>=50 nM; rB1R: Des-Arg^9-bradykinin 10 μM). This gives the result in % activation based on the Ca^2+ signal after addition of Lys-Des-Arg^9-bradykinin (>=50 nM) or Des-Arg^9-bradykinin (10 μM). After incubation for 10-20 minutes, Lys-Des-Arg^9-bradykinin (hB1R) or Des-Arg^9-bradykinin (rB1R) in the concentration of the EC80 is applied and the inflow of Ca^2+ is likewise determined. Antagonists lead to a suppression of the Ca^2+ inflow. % inhibition compared with the maximum achievable inhibition is calculated.
(§7) In order to determine the IC50 value, the substances are added in various concentrations. […]

[2] = target: T2, B1R receptor of the rat (rB1R) (Rattus norvegicus, UniProt P97583); assay: Functional investigation on the bradykinin receptor 1 (B1R), FLIPR Ca2+ assay, rB1R cells; format: cell-based
T2 construct: expressed in transfected cells; host or cells: CHO K1 cells
T2 sequence (P97583 1-337): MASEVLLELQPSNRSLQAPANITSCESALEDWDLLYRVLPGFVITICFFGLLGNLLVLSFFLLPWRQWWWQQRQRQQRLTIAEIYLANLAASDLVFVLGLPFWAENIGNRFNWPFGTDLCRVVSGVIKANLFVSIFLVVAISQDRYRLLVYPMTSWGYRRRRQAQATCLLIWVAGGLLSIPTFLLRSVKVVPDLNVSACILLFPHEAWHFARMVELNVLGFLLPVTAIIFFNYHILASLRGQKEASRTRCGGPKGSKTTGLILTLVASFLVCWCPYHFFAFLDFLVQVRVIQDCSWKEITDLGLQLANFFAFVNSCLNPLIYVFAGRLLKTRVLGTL
Procedure: as §1, §2, §3, §4, §5, §6, §7

Structure (SMILES) | % Inhibition (human B1R) at 10 μM ([1]; 10 µM) [%] | % Inhibition (rat B1R) at 10 μM ([2]; 10 µM) [%] | inhibition at 10 µM [1] [%] | inhibition at 10 µM [2] [%]
COc1cc(C)c(S(=O)(=O)N(C)Cc2nc3cccc(C(=O)N4CCC5(CC4)CCN(c4ccncc4)CC5)c3[nH]2)c(C)c1 [I_01, 4-methoxy-N,2,6-trimethyl-N-[[7-(9-pyridin-4-yl-3,9-diazaspiro[5.5]undecane-3-carbonyl)-1H-benzoimidazol-2-yl]-methyl]-benzenesulfonic acid amide] | 98 | 96 |  | 
COc1cc(C)c(S(=O)(=O)N(C)CCc2nc3c(C(=O)N4CCC5(CC4)CCN(c4ccncc4)CC5)cccc3[nH]2)c(C)c1 [I_02, 4-methoxy-N,2,6-trimethyl-N-[2-[4-(9-pyridin-4-yl-3,9-diazaspiro[5.5]undecane-3-carbonyl)-1H-benzoimidazol-2-yl]-ethyl]-benzenesulfonic acid amide] |  |  | 97 | 100
COc1cc(C)c(S(=O)(=O)N(C)Cc2nc3cccc(C(=O)N4CCC5(CCC(Oc6ccncc6)CC5)CC4)c3[nH]2)c(C)c1 [I_03, 4-methoxy-N,2,6-trimethyl-N-[[7-(9-pyridin-4-yloxy-3-azaspiro[5.5]undecane-3-carbonyl)-1H-benzoimidazol-2-yl]-methyl]-benzenesulfonic acid amide] |  |  | 99 | 86
COc1cc(C)c(S(=O)(=O)N(C)Cc2nc3cccc(C(=O)N4CCC5(CCC(N6CCC6)CC5)CC4)c3[nH]2)c(C)c1 [I_04, N-[[7-[9-(azetidin-1-yl)-3-azaspiro[5.5]undecane-3-carbonyl]-1H-benzoimidazol-2-yl]-methyl]-4-methoxy-N,2,6-trimethyl-benzenesulfonic acid amide] |  |  | 99 | 97
COc1cc(C)c(S(=O)(=O)N(C)Cc2nc3cccc(C(=O)N4CCC5(CCC(N6CC(F)(F)C6)CC5)CC4)c3[nH]2)c(C)c1 [I_05, N-[[7-[9-(3,3-difluoro-azetidin-1-yl)-3-azaspiro[5.5]undecane-3-carbonyl]-1H-benzoimidazol-2-yl]-methyl]-4-methoxy-N,2,6-trimethyl-benzenesulfonic acid amide] |  |  | 55 | 72
COc1cc(C)c(S(=O)(=O)N(C)C(C)c2nc3cccc(C(=O)N4CCC5(CC4)CCN(c4ccncc4)CC5)c3[nH]2)c(C)c1 (stereo not drawn) [I_06, 4-methoxy-N,2,6-trimethyl-N-[1-[7-(9-pyridin-4-yl-3,9-diazaspiro[5.5]undecane-3-carbonyl)-1H-benzoimidazol-2-yl]-ethyl]-benzenesulfonic acid amide] |  |  | 94 | 90
CN(Cc1nc2cccc(C(=O)N3CCC4(CC3)CCN(c3ccncc3)CC4)c2[nH]1)S(=O)(=O)c1cccc2ccccc12 [I_07, N-methyl-N-[[7-(9-pyridin-4-yl-3,9-diazaspiro[5.5]undecane-3-carbonyl)-1H-benzoimidazol-2-yl]-methyl]-naphthalene-1-sulfonic acid amide] |  |  | 98 | 96
CN(Cc1nc2cccc(C(=O)N3CCC4(CC3)CCN(c3ccncc3)CC4)c2[nH]1)S(=O)(=O)c1ccccc1C(F)(F)F [I_08, N-methyl-N-[[7-(9-pyridin-4-yl-3,9-diazaspiro[5.5]undecane-3-carbonyl)-1H-benzoimidazol-2-yl]-methyl]-2-(trifluoromethyl)-benzenesulfonic acid amide] |  |  | 100 | 99
COc1cc(C)c(S(=O)(=O)N(C)Cc2nc3cccc(C(=O)N4CCC5(CCN(c6ccncc6)CC5)C4)c3[nH]2)c(C)c1 [I_09, 4-methoxy-N,2,6-trimethyl-N-[[7-(8-pyridin-4-yl-3,8-diazaspiro[4.5]decane-3-carbonyl)-1H-benzoimidazol-2-yl]-methyl]-benzenesulfonic acid amide] |  |  | 99 | 104
COc1cc(C)c(S(=O)(=O)N(C)Cc2nc3cccc(C(=O)N4CCC5(CCN(c6ccncc6)C5)C4)c3[nH]2)c(C)c1 (stereo not drawn) [I_10, 4-methoxy-N,2,6-trimethyl-N-[[7-(8-pyridin-4-yl-3,8-diazaspiro[4.4]nonane-3-carbonyl)-1H-benzoimidazol-2-yl]-methyl]-benzenesulfonic acid amide] |  |  | 100 | 104
CN(Cc1nc2cccc(C(=O)N3CCC4(CC3)CCN(c3ccncc3)CC4)c2[nH]1)S(=O)(=O)c1ccc(OC(F)(F)F)cc1Cl [I_11, 2-chloro-N-methyl-N-[[7-(9-pyridin-4-yl-3,9-diazaspiro[5.5]undecane-3-carbonyl)-1H-benzoimidazol-2-yl]-methyl]-4-(trifluoromethyloxy)-benzenesulfonic acid amide hydrochloride] |  |  | 99 | 99
COc1cc(C)c(S(=O)(=O)N(C)C2(c3nc4cccc(C(=O)N5CCC6(CC5)CCN(c5ccncc5)CC6)c4[nH]3)CC2)c(C)c1 [I_12, 4-methoxy-N,2,6-trimethyl-N-[1-[7-(9-pyridin-4-yl-3,9-diazaspiro[5.5]undecane-3-carbonyl)-1H-benzoimidazol-2-yl]-cyclopropyl]-benzenesulfonic acid amide] |  |  | 98 | 92
COc1cc(C)c(S(=O)(=O)N(C)Cc2nc3ccc(F)c(C(=O)N4CCC5(CC4)CCN(c4ccncc4)CC5)c3[nH]2)c(C)c1 [I_13, N-[[6-fluoro-7-(9-pyridin-4-yl-3,9-diazaspiro[5.5]undecane-3-carbonyl)-1H-benzoimidazol-2-yl]-methyl]-4-methoxy-N,2,6-trimethyl-benzenesulfonic acid amide] |  |  | 98 | 93
COc1cc(C)c(S(=O)(=O)N(C)C(C)c2nc3cccc(C(=O)N4CCC5(CC4)CCN(S(=O)(=O)c4cccc6c4ccn6C)CC5)c3[nH]2)c(C)c1 (stereo not drawn) [I_CC-60, 4-Methoxy-N,2,6-trimethyl-N-[1-[7-[9-[(1-methyl-1H-indol-4-yl)sulfonyl]-3,9-diazaspiro[5.5]undecane-3-carbonyl]-1H-benzoimidazol-2-yl]-ethyl]-benzenesulfonic acid amide] |  |  |  | 101
